{
  "source": "patent US20240091366A1",
  "about": "“NOVEL ACID-SENSITIVE APTAMER TRIPTOLIDE CONJUGATE AND APPLICATIONS” (priority 2022, published 2024)",
  "key": {"[1]": {"system": "breast cancer cell line MDA-MB-231", "assay": "MTT assay, cell proliferation inhibition", "format": "cell-based", "conditions": "for cell proliferation inhibition rate: 48 h, samples 1-3", "description": "(§1) Material: aptamer triptolide conjugate (AS1411-TP). Triptolide (TP) was provided by Shanghai Yaji Biotechnology Co. Ltd; aptamer (AS1411) was obtained from Chengdu Pilot Drug Development Co. Ltd; trypsin, thiazolyl blue (MTT) (Biofroxx, Germany); dimethyl sulfoxide (DMSO) (MP Biomedicals, France); fetal bovine serum (FBS) (Newzerum, New Zealand); DMEM medium, RPMI1640 medium, Petri dishes, 96-well plates (Corning, USA); colon cancer cells HCT116, breast cancer cells MDA-MB-231, non-small-cell lung cancer cells A549, pancreatic cancer cells PANC-1, and hepatocellular carcinoma cells HepG2 were purchased from the Shanghai Cell Bank of the Chinese Academy of Sciences and preserved in the laboratory.\n(§2) Take the tumor cells HCT116, MDA-MB-231, A549, PANC-1 and HepG2 cell lines from the liquid nitrogen tank, place them in a 37° C. water bath, wait for the frozen cells to melt into cell suspension, centrifuge the cells at 1000 r/min for 3 min, discard the supernatant, add 1 ml of fresh complete medium containing 10% fetal bovine serum and 1% double antibody to mix the cells, then add 5 ml of medium, gently and repeatedly blowing the cells with a pipette gun to make them mix well. Then add 5 ml of medium, blow the cells gently and repeatedly with a pipette gun to mix them well, and finally transfer the cell suspension to a […] and label the cell name, cell number, date of resuscitation and the operator's name, and place it in a cell culture incubator for cultivation. (HCT116, PANC-1 and HepG2 cell lines were cultured in DMEM medium, while MDA-MB-231 cell line and A549 cell line were cultured in RPMI1640 medium).\n(§3) Take HCT116, MDA-MB-231, A549, PANC-1, HepG2 cells with good growth status, remove the medium, add 1 ml of sterile PBS to wash, add 1.5 ml of trypsin to digest the cells, about 2 min later the cells become round and fall off, add 1.5 ml of medium to terminate the digestion, transfer it to centrifugal tube, centrifuge at 1000 r/min for 3 min, discard the supernatant, add 1 ml of fresh medium to resuspend, then add fresh medium for 1:3 distribution to other culture dishes, and label the date of transmission and the number of generations. Place in the cell culture incubator for cultivation.\n(§4) Take HCT116, MDA-MB-231, A549, PANC-1, HepG2 cells with good growth status, by the same operation as the cell passaging experiment, after cell resuspension, cell counting with hemocyte counting plate, with 2500 cells/well, plant in 96-well plate, after 24 h of cell culture, remove the original medium, add medium containing different concentrations of drugs and continue to cultivate for 48 hours. After 24 h of cell culture, the original medium was removed and the medium containing different concentrations of drugs was added to continue the culture for 48 hours. […] The above steps were repeated three times."}, "[2]": {"system": "lung adenocarcinoma cell line A549", "assay": "MTT assay, cell proliferation inhibition", "format": "cell-based", "conditions": "for cell proliferation inhibition rate: 48 h, samples 1-3", "description": "as §1, §2, §3, §4"}, "[3]": {"system": "pancreatic cancer cell line PANC-1", "assay": "MTT assay, cell proliferation inhibition", "format": "cell-based", "conditions": "for cell proliferation inhibition rate: 48 h, samples 1-3", "description": "as §1, §2, §3, §4"}, "[4]": {"system": "colon cancer cells HCT116", "assay": "In vivo antitumor activity, colon cancer xenograft in nude mice", "design": "species or system mouse; Tumor weight: unit not given here", "conditions": "HCT116 model, once every 2 days, 8 doses", "description": "The following are the in vivo activity studies conducted in different tumor-bearing mice:\nA PBS negative control group was set up."}, "[5]": {"assay": "Body weight during administration, colon cancer model", "conditions": "HCT116 model, during 8 times of administration", "description": "(§5) Female nude mice were reared for 6-7 weeks under standard environment, colon cancer cells HCT116 were suspended in serum-free medium, and each mouse was inoculated with 5*10^6 tumor cells. When the tumor volume reached 50-100 mm^3, the mice were randomly divided into 4 groups, and were injected with aptamer triptolide conjugate, triptolide, and aptamer by tail vein, respectively, 12 mice in each group. A PBS negative control group was set up. […] The drugs were administered once every 2 days for 8 consecutive doses, and the experiment was ended 24 hours after the last dose. At the end of the experiment, the animals were executed by breaking the cervical vertebrae, and the tumors were stripped and weighed to calculate the tumor growth inhibition rate of the drug. The t-test was used to compare the tumor weight, tumor volume, RTV and other indexes of the animals in each group."}, "[6]": {"assay": "Body weight during administration, breast cancer model", "conditions": "MDA-MB-231 model, during 8 times of administration", "description": "as §5, with “Specific experimental protocol: Female” for “Female”, “breast” for “colon”, “MDA-MB-231” for “HCT116”, “6*10^6” for “5*10^6”"}},
  "note": "Values joined by “and” are separate entries in the source; they are usually repeats but may differ in a detail not shown here. Identical values can stand only once.",
  "data": [
    {"substance": "AS1411: nucleolin aptamer, single-stranded oligonucleotide, SEQ ID NO: 1 GGTGGTGGTGGTTGTGGTGGTGGTGG", "values": [
      {"measurement": "cell proliferation inhibition rate", "setting": "[1]; MDA-MB-231, 3.1 nM, 0.0031 µM", "result": "2.2910 and 2.1209 and 2.5159"},
      {"measurement": "cell proliferation inhibition rate", "setting": "[1]; MDA-MB-231, 6.3 nM, 0.0063 µM", "result": "3.2333 and 4.9611 and 4.2994"},
      {"measurement": "cell proliferation inhibition rate", "setting": "[1]; MDA-MB-231, 25.0 nM, 0.025 µM", "result": "5.5843 and 7.7330 and 4.4586"},
      {"measurement": "cell proliferation inhibition rate", "setting": "[1]; MDA-MB-231, 50.0 nM, 0.05 µM", "result": "6.8129 and 6.6467 and 6.1306"},
      {"measurement": "cell proliferation inhibition rate", "setting": "[1]; MDA-MB-231, 100.0 nM, 0.1 µM", "result": "9.0069 and 8.0722 and 8.6624"},
      {"measurement": "cell proliferation inhibition rate", "setting": "[1]; MDA-MB-231, 200.0 nM, 0.2 µM", "result": "14.4727 and 11.8492 and 10.6369"},
      {"measurement": "inhibitory effect on tumor cell", "setting": "[1]; MDA-MB-231, at the experimental concentration", "result": "did not have any significant inhibitory effect"},
      {"measurement": "cell proliferation inhibition rate", "setting": "[2]; A549, 12.5 nM, 0.0125 µM", "result": "5.5843 and 7.7330 and 4.4586"},
      {"measurement": "cell proliferation inhibition rate", "setting": "[2]; A549, 25.0 nM, 0.025 µM", "result": "6.8129 and 6.6467 and 6.1306"},
      {"measurement": "cell proliferation inhibition rate", "setting": "[2]; A549, 50.0 nM, 0.05 µM", "result": "9.0069 and 8.0722 and 7.6624"},
      {"measurement": "cell proliferation inhibition rate", "setting": "[2]; A549, 100.0 nM, 0.1 µM", "result": "11.4727 and 11.8492 and 10.6369"},
      {"measurement": "cell proliferation inhibition rate", "setting": "[2]; A549, 200.0 nM, 0.2 µM", "result": "14.5704 and 11.4171 and 14.3285"},
      {"measurement": "inhibitory effect on tumor cell", "setting": "[2]; A549, at the experimental concentration", "result": "did not have any significant inhibitory effect"},
      {"measurement": "cell proliferation inhibition rate", "setting": "[3]; PANC-1, 12.5 nM, 0.0125 µM", "result": "3.6656 and 3.5639 and 3.6148"},
      {"measurement": "cell proliferation inhibition rate", "setting": "[3]; PANC-1, 25.0 nM, 0.025 µM", "result": "3.0417 and 4.2455 and 4.1946"},
      {"measurement": "cell proliferation inhibition rate", "setting": "[3]; PANC-1, 50.0 nM, 0.05 µM", "result": "7.2954 and 7.9552 and 9.6253"},
      {"measurement": "cell proliferation inhibition rate", "setting": "[3]; PANC-1, 100.0 nM, 0.1 µM", "result": "8.3147 and 7.1285 and 8.7216"},
      {"measurement": "cell proliferation inhibition rate", "setting": "[3]; PANC-1, 200.0 nM, 0.2 µM", "result": "9.6236 and 10.2679 and 9.9457"},
      {"measurement": "inhibitory effect on tumor cell", "setting": "[3]; PANC-1, at the experimental concentration", "result": "did not have any significant inhibitory effect"},
      {"measurement": "RTV", "setting": "[4]; 10 μM 100 μL tail vein", "result": "33.13 ± 0.51"},
      {"measurement": "T/C (%)", "setting": "[4]; 10 μM 100 μL tail vein", "result": 93.19, "unit": "%"},
      {"measurement": "Tumor inhibition rate (%)", "setting": "[4]; 10 μM 100 μL tail vein", "result": 6.45, "unit": "%"},
      {"measurement": "Tumor weight", "setting": "[4]; 10 μM 100 μL tail vein", "result": "2.92 ± 0.33"},
      {"measurement": "RTV", "setting": "[4]; 30 μM 100 μL tail vein", "result": "28.56 ± 0.23"},
      {"measurement": "T/C (%)", "setting": "[4]; 30 μM 100 μL tail vein", "result": 80.34, "unit": "%"},
      {"measurement": "Tumor inhibition rate (%)", "setting": "[4]; 30 μM 100 μL tail vein", "result": 12.91, "unit": "%"},
      {"measurement": "Tumor weight", "setting": "[4]; 30 μM 100 μL tail vein", "result": "2.74 ± 0.15"},
      {"measurement": "RTV", "setting": "[4]; 50 μM 100 μL tail vein", "result": "26.32 ± 0.15"},
      {"measurement": "T/C (%)", "setting": "[4]; 50 μM 100 μL tail vein", "result": 74.04, "unit": "%"},
      {"measurement": "Tumor inhibition rate (%)", "setting": "[4]; 50 μM 100 μL tail vein", "result": 16.12, "unit": "%"},
      {"measurement": "Tumor weight", "setting": "[4]; 50 μM 100 μL tail vein", "result": "2.66 ± 0.14"},
      {"measurement": "body weights of mice", "setting": "[5]", "result": "basically maintained in the tolerable range of animal toxicity and side-effects"},
      {"measurement": "body weights of mice", "setting": "[6]", "result": "basically maintained in the tolerable range of animal toxicity and side-effects"}
    ]}
  ]
}
